Experimental data taken from US20050143430A1, “Catechol bioisosteres” (priority 2002, published 2005).

What follows are compounds tested against Insulin-like Growth Factor 1 Receptor (IGF-1R) (Homo sapiens, UniProt P08069) (assay: IGF-1R inhibition in vitro).
Chain of Insulin-like Growth Factor 1 Receptor (IGF-1R) (P08069 31-1367, species assumed): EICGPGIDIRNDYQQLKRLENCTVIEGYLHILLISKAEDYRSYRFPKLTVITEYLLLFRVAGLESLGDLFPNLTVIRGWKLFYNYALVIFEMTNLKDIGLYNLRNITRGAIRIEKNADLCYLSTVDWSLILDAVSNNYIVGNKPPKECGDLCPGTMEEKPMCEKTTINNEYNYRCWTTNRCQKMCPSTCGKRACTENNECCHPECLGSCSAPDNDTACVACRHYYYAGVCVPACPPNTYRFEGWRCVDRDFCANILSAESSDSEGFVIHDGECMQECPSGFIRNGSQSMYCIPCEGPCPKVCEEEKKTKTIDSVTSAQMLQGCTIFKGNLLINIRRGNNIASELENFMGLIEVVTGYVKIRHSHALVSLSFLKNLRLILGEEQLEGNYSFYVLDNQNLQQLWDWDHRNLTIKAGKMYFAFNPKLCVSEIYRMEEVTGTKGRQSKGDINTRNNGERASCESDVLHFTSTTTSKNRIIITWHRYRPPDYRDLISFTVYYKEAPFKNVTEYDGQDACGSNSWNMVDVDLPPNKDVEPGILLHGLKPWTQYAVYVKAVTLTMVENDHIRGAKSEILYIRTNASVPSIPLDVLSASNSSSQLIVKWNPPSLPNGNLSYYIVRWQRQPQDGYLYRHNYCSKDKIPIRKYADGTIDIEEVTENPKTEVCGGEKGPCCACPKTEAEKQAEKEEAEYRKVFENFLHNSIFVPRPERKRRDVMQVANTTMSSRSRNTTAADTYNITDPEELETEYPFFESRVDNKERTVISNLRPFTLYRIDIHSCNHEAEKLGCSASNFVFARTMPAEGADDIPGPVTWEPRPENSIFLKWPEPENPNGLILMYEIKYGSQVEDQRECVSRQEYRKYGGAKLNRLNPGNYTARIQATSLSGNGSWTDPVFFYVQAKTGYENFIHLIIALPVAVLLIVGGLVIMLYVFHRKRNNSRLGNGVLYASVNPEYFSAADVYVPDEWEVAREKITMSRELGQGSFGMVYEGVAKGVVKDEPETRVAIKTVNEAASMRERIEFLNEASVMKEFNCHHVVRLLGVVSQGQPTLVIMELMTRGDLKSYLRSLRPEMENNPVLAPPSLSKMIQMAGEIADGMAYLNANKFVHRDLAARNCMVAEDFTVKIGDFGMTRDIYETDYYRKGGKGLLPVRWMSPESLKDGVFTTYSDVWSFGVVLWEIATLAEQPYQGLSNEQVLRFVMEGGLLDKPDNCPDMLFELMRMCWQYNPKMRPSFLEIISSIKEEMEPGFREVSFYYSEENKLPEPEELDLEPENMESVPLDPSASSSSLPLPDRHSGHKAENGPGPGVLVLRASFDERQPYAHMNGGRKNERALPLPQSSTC
Format: biochemical
With N#CC(=Cc1ccc(O)c(O)c1)C(=O)c1ccc2[nH]c(=O)oc2c1 (single isomer, unassigned) [GB16-11] the IC50 was 200 nM.
N#CC(=Cc1ccc(O)c(O)c1)C(=O)c1ccc2[nH]c(=O)oc2c1 (single isomer, unassigned) [GB 16-10] showed an IC50 of 1200 nM.
For N#C/C(=C\c1ccc(O)c(O)c1)C(=O)c1ccc(O)c(O)c1 [AG 538, reference compound], the IC50 was 60 nM.
N#C/C(=C\c1ccc2oc(=O)[nH]c2c1)C(=O)c1ccc(O)c(O)c1 [AGL 2263] was tested, and the IC50 was 70 nM.
For N#C/C(=C\c1ccc2[nH]c(=O)oc2c1)C(=O)c1ccc2[nH]c(=O)oc2c1 [GB18], the IC50 was 4200 nM.
N#C/C(=C\c1ccc2oc(=O)[nH]c2c1)C(=O)c1ccc2[nH]c(=O)oc2c1 [GB 17] was tested, and the IC50 was 12000 nM.
